pIC50: −log10 of the molar value. Read-outs that look alike come from different tables or passages of the source. Values belong to the molecule of their own block, whether it stands above or below them.
Target: T1, human p38 kinase alpha (Homo sapiens, UniProt Q16539)
T1 construct: GST (N, cleaved yes); made in house; host or cells: E. coli DH10B
Experiment: p38 kinase in vitro assay, phosphorylation of biotinylated PHAS-I with 32P-ATP
Format: biochemical
Settings: for pIC50: read-out: P38 alpha kinase IC50; for inhibition at 1 µM: read-out: P38 alpha kinase % inhib @ conc.

[1] = in vitro P38-alpha kinase inhibition

T1 sequence (Q16539 whole entry): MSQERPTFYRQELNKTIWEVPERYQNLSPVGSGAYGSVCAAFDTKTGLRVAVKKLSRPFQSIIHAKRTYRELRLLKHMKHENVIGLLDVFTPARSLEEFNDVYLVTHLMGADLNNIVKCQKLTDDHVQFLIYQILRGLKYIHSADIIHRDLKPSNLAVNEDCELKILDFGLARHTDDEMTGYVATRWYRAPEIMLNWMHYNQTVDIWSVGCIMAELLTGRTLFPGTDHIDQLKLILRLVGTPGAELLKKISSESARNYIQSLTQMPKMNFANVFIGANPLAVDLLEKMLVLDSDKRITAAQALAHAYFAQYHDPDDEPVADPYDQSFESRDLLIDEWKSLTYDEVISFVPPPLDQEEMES

P38 alpha kinase % inhib @ conc. (@ 1.0 uM): 83.0% @
Compound: COc1ccc(NC(=O)NCCCc2[nH]nc(-c3ccc(F)cc3)c2-c2ccncc2)c(OC)c1 [Example B-1227]

P38 alpha kinase % inhib @ conc. (@ 1.0 uM): 81.0% @
Compound: O=C(NCCCc1[nH]nc(-c2ccc(F)cc2)c1-c1ccncc1)C1CCCN1 (stereo not drawn) [Example B-1232]

pIC50 [1]: 6.59
Compound: O=S(=O)(NCCc1[nH]nc(-c2ccc(F)cc2)c1-c1ccncc1)c1cccc(C(F)(F)F)c1 [Example B-1099]

pIC50 [1]: 5.81
Compound: COCC(=O)NC(C)c1[nH]nc(-c2ccc(F)cc2)c1-c1ccncc1 (stereo not drawn) [Example B-0543]

pIC50 (in vitro P38-alpha kinase): 6.34
Compound: Cc1c(-c2ccncc2)c(-c2ccc(F)cc2)nn1CC(=O)NCCC1=CCCCC1 [Example B-2316]

P38 alpha kinase % inhib @ conc. (uM) (@ 1.0 uM): 65.0% @
Compound: O=C(NCCCc1[nH]nc(-c2ccc(F)cc2)c1-c1ccncc1)c1ccccc1C(F)(F)F [Example B-1173]

pIC50 [1]: 5.82
Compound: CCN(CC)C(=O)NC(Cc1ccccc1)c1[nH]nc(-c2ccc(F)cc2)c1-c1ccncc1 (stereo not drawn) [Example B-0787]

P38 alpha kinase % inhib @ conc. (uM) (@ 1.0 uM): 96.0% @
Compound: O=C(NCCc1ccccc1)NCCc1[nH]nc(-c2ccc(F)cc2)c1-c1ccncc1 [Example B-0945]

P38 alpha kinase % inhib @ conc. (uM) (@ 1.0 uM): 77.0% @
Compound: O=C(NCCCc1[nH]nc(-c2ccc(F)cc2)c1-c1ccncc1)c1ccncc1 [Example B-1183]

pIC50 [1]: 5.34
Compound: CCCCS(=O)(=O)NC(Cc1ccccc1)c1[nH]nc(-c2ccc(F)cc2)c1-c1ccncc1 (stereo not drawn) [Example B-0716]

pIC50 [1]: 6.66
Compound: CC(NS(=O)(=O)c1ccc(F)cc1)c1[nH]nc(-c2ccc(F)cc2)c1-c1ccncc1 (stereo not drawn) [Example B-0562]

P38 alpha kinase % inhib @ conc. (@ 10.0 uM): 44.0% @
Compound: Cc1c(-c2ccncc2)c(-c2ccc(F)cc2)nn1CC(=O)NC(Cc1ccccc1)c1ccccc1 (stereo not drawn) [Example B-2320]

pIC50 [1]: > 7.00
Compound: O=S(=O)(NCCc1[nH]nc(-c2ccc(F)cc2)c1-c1ccncc1)c1c(Cl)cccc1Cl [Example B-1081]

pIC50 (in vitro P38-alpha kinase): 6.12
Compound: CCCCS(=O)(=O)N1CCC(c2[nH]nc(-c3ccc(F)cc3)c2-c2ccncc2)CC1 [Example B-1430]

inhibition at 1 µM (@ 1.0 uM): 82%
Compound: CCCCCCC(=O)NCc1[nH]nc(-c2ccc(F)cc2)c1-c1ccncc1 [Example B-0015]

P38 alpha kinase % inhib @ conc. (uM) (@ 1.0 uM): 74.0% @
Compound: O=S(=O)(NCCCc1[nH]nc(-c2ccc(F)cc2)c1-c1ccncc1)c1ccccc1 [Example B-1191]

inhibition at 1 µM (@ 1.0 uM): 79%
Compound: CCCCC(=O)NCc1[nH]nc(-c2ccc(F)cc2)c1-c1ccncc1 [Example B-0014]

pIC50 (in vitro P38-alpha kinase): 6.77
Compound: Cc1c(Cl)cccc1S(=O)(=O)NCCCc1[nH]nc(-c2ccc(F)cc2)c1-c1ccncc1 [Example B-1252]

pIC50 [1]: 5.22
Compound: O=C(Cc1cccs1)NC(Cc1ccccc1)c1[nH]nc(-c2ccc(F)cc2)c1-c1ccncc1 (stereo not drawn) [Example B-0745]

pIC50 [1]: 5.37
Compound: O=S(=O)(NC(Cc1ccccc1)c1[nH]nc(-c2ccc(F)cc2)c1-c1ccncc1)C(F)(F)F (stereo not drawn) [Example B-0713]

P38 alpha kinase % inhib @ conc. (@ 10.0 uM): 46.0% @
Compound: CCN(Cc1c(F)cccc1Cl)C(=O)Cn1nc(-c2ccc(F)cc2)c(-c2ccncc2)c1C [Example B-2367]

pIC50 (in vitro P38-alpha kinase): 7.22
Compound: Cc1ccc(C(=O)N2CCC(c3[nH]nc(-c4ccc(F)cc4)c3-c3ccncc3)CC2)cc1 [Example B-1371]

pIC50 [1]: 5.80
Compound: CC(C)OC(=O)NC(Cc1ccccc1)c1[nH]nc(-c2ccc(F)cc2)c1-c1ccncc1 (stereo not drawn) [Example B-0751]

P38 alpha kinase % inhib @ conc. (@ 10.0 uM): 65.0% @
Compound: CCN1CCN(C(=O)Cn2nc(-c3ccc(F)cc3)c(-c3ccncc3)c2C)CC1 [Example B-2368]

pIC50 [1]: 5.70
Compound: O=S(=O)(C=Cc1ccccc1)NC(Cc1ccccc1)c1[nH]nc(-c2ccc(F)cc2)c1-c1ccncc1 (stereo not drawn) [Example B-0710]

P38 alpha kinase IC50, uM or % inhib @ conc. (uM): % inhib (@ 10.0 uM): 88.0% @
Compound: Cc1c(-c2ccncc2)c(-c2ccc(F)cc2)nn1CC(=O)Nc1cccc(Br)c1 [Example B-2426]

pIC50 [1]: 5.55
Compound: CC(C)c1cc(C(C)C)c(C(=O)NC(C)c2[nH]nc(-c3ccc(F)cc3)c2-c2ccncc2)c(C(C)C)c1 (stereo not drawn) [Example B-0674]

pIC50 [1]: 7.89
Compound: O=S(=O)(NCCc1[nH]nc(-c2ccc(F)cc2)c1-c1ccncc1)c1ccc(F)c(Cl)c1 [Example B-1094]

pIC50 [1]: 6.52
Compound: O=C(NC(Cc1ccccc1)c1[nH]nc(-c2ccc(F)cc2)c1-c1ccncc1)C1CCC1 (stereo not drawn) [Example B-0804]

pIC50 (in vitro P38-alpha kinase): 6.33
Compound: Cc1ccccc1C(=O)NCCCc1[nH]nc(-c2ccc(F)cc2)c1-c1ccncc1 [Example B-1321]

pIC50 [1]: 6.92
Compound: Cc1noc(C)c1S(=O)(=O)NCCc1[nH]nc(-c2ccc(F)cc2)c1-c1ccncc1 [Example B-1104]

pIC50 [1]: 5.68
Compound: CC(C)COC(=O)NC(Cc1ccccc1)c1[nH]nc(-c2ccc(F)cc2)c1-c1ccncc1 (stereo not drawn) [Example B-0858]

pIC50 (in vitro P38-alpha kinase): 7.80
Compound: COc1ccc(C(=O)N2CCC(c3[nH]nc(-c4ccc(F)cc4)c3-c3ccncc3)CC2)cc1 [Example B-1391]

pIC50 (in vitro P38-alpha kinase): 6.17
Compound: Cc1ccccc1S(=O)(=O)N1CCC(c2[nH]nc(-c3ccc(F)cc3)c2-c2ccncc2)CC1 [Example B-1459]

pIC50 (in vitro P38-alpha kinase): 7.10
Compound: O=S(=O)(NCCCc1[nH]nc(-c2ccc(F)cc2)c1-c1ccncc1)c1cccc2cnccc12 [Example B-1295]

P38 alpha kinase % inhib @ conc. (uM) (@ 1.0 uM): 78.0% @
Compound: COCC(=O)NCCCc1[nH]nc(-c2ccc(F)cc2)c1-c1ccncc1 [Example B-1171]
